# Source: US20060121047A1, “Use of hmgb polypetides for increasing immune responses” (priority 2002, published 2006)
# Columns and labels:
# [1] = test system: Murine macrophage-like RAW 264.7 cells; test: TNF release from RAW 264.7 cells (L929 cytotoxicity bioassay); assay type: cell-based; conditions: for TNF release by synthetic peptide fragment of the B box: 10 μg/ml synthetic peptide, 10 hours (FIG. 3); for TNF release: 1 μg/ml protein, 8 hours, RAW 264.7 cells (FIG. 1)
# Experimental: Murine macrophage-like RAW 264.7 cells (American Type Culture Collection, Rockville, Md.) were cultured in RPMI 1640 medium (Life Technologies, Grand Island N.Y.) supplemented with 10% fetal bovine serum (Gemini, Catabasas, Calif.), penicillin and streptomycin (Life Technologies) and were used at 90% confluence in serum-free Opti-MEM I medium (Life Technologies, Grand Island, N.Y.). […] Polymyxin B was not used in experiments of synthetic peptide studies.
# TNF release was measured by a standard murine fibroblast L929 (ATCC, American Type Culture Collection, Rockville, Md.) cytotoxicity bioassay (Bianchi et al., Journal of Experimental Medicine 183:927-936, 1996) with the minimum detectable concentration of 30 pg/ml. Recombinant mouse TNF was obtained from R&D system Inc., (Minneapolis, MN). Murine fibroblast L929 cells (ATCC) were cultured in DMEM (Life Technologies, Grand Island, N.Y.) supplemented with 10% fetal bovine serum (Gemini, Catabasas, Calif.), penicillin (50 units/ml) and streptomycin (50 μg/ml) (Life Technologies) in a humidified incubator with 5% CO2.
# The effect of the mutants on TNF release from Murine macrophage-like RAW 264.7 cells (ATCC) was carried out as follows. RAW 264.7 cells were cultured in RPMI 1640 medium (Life Technologies, Grand Island N.Y.) supplemented with 10% fetal bovine serum (Gemini, Catabasas, Calif.), penicillin and streptomycin (Life Technologies). Polymyxin (Sigma, St. Louis, Mo.) was added at 100 units/ml to suppress the activity of any contaminating LPS. Cells were incubated with 1 μg/ml of full length (wild-type) HMGB1 and each HMGB1 mutant protein in Opti-MEM I medium for 8 hours, and conditioned supernatants (containing TNF which had been released from the cells) were collected and TNF released from the cells was measured by a standard murine fibroblast L929 (ATCC) cytotoxicity bioassay (Bianchi et al., supra) with the minimum detectable concentration of 30 pg/ml. Recombinant mouse TNF was obtained from R & D Systems Inc., (Minneapolis, Minn.) and used as control in these experiments. Data in FIG. 1 are all presented as mean+SEM unless otherwise indicated. (=6−10).
# To further examine the effect of HMGB1 B box on cytokine production, varying amounts of HMGB1 B box were evaluated for the effects on TNF, IL-1B, and IL-6 production in murine macrophage-like RAW 264.7 cells. Conditioned media were harvested and measured for TNF, IL-1β and IL-6 levels. TNF levels were measured as described herein, and IL-1β and IL-6 levels were measured using the mouse IL-1β and IL-6 enzyme-linked immunosorbent assay (ELISA) kits (R&D System Inc., Minneapolis, 1) and N>5 for all experiments.
# The kinetics of B box-induced TNF release was also examined. TNF release and TNF mRNA expression was measured in RAW 264.7 cells induced by B box polypeptide or GST tag polypeptide only used as a control (vector) (10 μg/ml) for 0 to 48 hours. Supernatants were analyzed for TNF protein levels by an L929 cytotoxicity assay (N=3-5) as described herein. For mRNA measurement, cells were plated in 100 mm plate and treated in Opti-MEM I medium containing B box polypeptide or the vector alone for 0, 4, 8, or 24 hours, as indicated in FIG. 2D. The vector only sample was assayed at the 4 hour time point. Cells were scraped off the plate and total RNA was isolated by RNAzol B method in accordance with the manufacturer's instructions (Tel-Test “B”, Inc., Friendswood, Tex.). TNF (287 bp) was measured by RNase protection assay (Ambion, Austin, Tex.). Equal loading and the integrity of RNA was verified by ethidium bromide staining of the RNA sample on agarose-formaldehyde gel. […] TNF mRNA expression was maximal at 4 hours and decreased at 8 and 24 hours. […] A similar study was carried out measuring TNF protein released from RAW 264.7 cells 0, 4, 8, 24, 32 or 48 hours after administration of B box or vector only (GST tag), using the L929 cytotoxicity assay described herein. […] Data are representative of three separate experiments. […]
# [2] = test system: RAW 264.7 cells; conditions: polymyxin B alone, 100-1,000 units/ml; cited from earlier work
Molecule,TNF release by synthetic peptide fragment of the B box [1],TNF release [1],also measured
"30-49: Synthetic peptide, amino acids 30-49 of the HMGB1 B box (SEQ ID NO: 20) (PGLSIGDVAKKLGEMWNNTA; listed as Homo sapiens)",did not induce TNF release,,
Polymyxin B,,,cell viability [2]: did not influence cell viability
"45-64: Synthetic peptide, amino acids 45-64 of the HMGB1 B box (SEQ ID NO: 20) (WNNTAADDKQPYEKKAAKLK; listed as Homo sapiens)",did not induce TNF release,,
"60-74: Synthetic peptide, amino acids 60-74 of the HMGB1 B box (SEQ ID NO: 20) (AAKLKEKYEKDIAAY; listed as Homo sapiens)",did not induce TNF release,,
"16-25: Synthetic peptide, amino acids 16-25 of the HMGB1 B box (SEQ ID NO: 20) (LFCSEYRPKI; listed as Homo sapiens)",did not induce TNF release,,
fkdpnapkrlpsafflfcse (FKDPNAPKRLPSAFFLFCSE; listed as Homo sapiens) [1-20-mer],TNF-stimulating activity was retained,,"TNF stimulating activity relative to full length synthetic B box (1-74-mer) or full length HMGB1 ([1]; peptide 10 μg/ml, 10 hours): less potent"
"A box: Human HMGB1 mutant containing only the A box (amino terminus + A box), SEQ ID NO: 21 (protein, listed as Homo sapiens) MGKGDPKKPTGKMSSYAFFVQTCREEHKKKHPDASVNFSEFSKKCSERWKTMSAKEKGKFEDMAKADKARYEREMKTYIPPKGET",,only weakly activated TNF release,
"wild-type HMGB1: Recombinant full length human HMGB1, SEQ ID NO: 18 (protein, listed as Homo sapiens) MGKGDPKKPTGKMSSYAFFVQTCREEHKKKHPDASVNFSEFSKKCSERWKTMSAKEKGKFEDMAKADKARYEREMKTYIPPKGETKKKFKDPNAPKRLPSAFFLFCSEYRPKIKGEHPGLSIGDVAKKLGEMWNNTAADDKQPYEKKAAKLKEKYEKDIAAYRAKGKPDAAKKGVVKAEKSKKKKEEEEDEEDEEDEEEEEDEEDEEDEEEDDDDE",,significantly stimulated TNF release,
"carboxyl-truncated HMGB1: Human HMGB1 mutant in which the carboxy terminus was deleted, SEQ ID NO: 19 (protein, listed as Homo sapiens) MGKGDPKKPTGKMSSYAFFVQTCREEHKKKHPDASVNFSEFSKKCSERWKTMSAKEKGKFEDMAKADKARYEREMKTYIPPKGETKKKFKDPNAPKRLPSAFFLFCSEYRPKIKGEHPGLSIGDVAKKLGEMWNNTAADDKQPYEKKAAKLKEKYEKDIAAYRAKGKPDAAKKGVVKAEKSK",,significantly stimulated TNF release,
